Legend:
Format in all cases: cell-based
Settings in all cases: component A (XP or YS) alone
[1] = test system: Escherichia coli ATCC25922 (大肠杆菌ATCC25922); test: Antibacterial action (MIC, FICI) against Escherichia coli ATCC25922 (Table 7)
[2] = test system: Shigella flexneri 2aEW-10 (福氏志贺氏菌2aEW-10); test: Antibacterial action (MIC, FICI) against Shigella flexneri 2aEW-10 (Table 15)
[3] = test system: Stenotrophomonas maltophilia NCTC 13637 (嗜麦芽窄食单胞菌NCTC 13637); test: Antibacterial action (MIC, FICI) against Stenotrophomonas maltophilia NCTC 13637 (Table 18)
[4] = test system: Streptococcus intermedius ATCC27335 (中间链球菌ATCC27335); test: Antibacterial action (MIC, FICI) against Streptococcus intermedius ATCC27335 (Table 20)
[5] = test system: Micrococcus lysodeikticus 2665 (溶壁微球菌2665); test: Antibacterial action (MIC, FICI) against Micrococcus lysodeikticus 2665 (Table 4)
[6] = test system: Serratia marcescens IFO 3736 (黏质沙雷氏菌IFO 3736); test: Antibacterial action (MIC, FICI) against Serratia marcescens IFO 3736 (Table 10)
[7] = test system: Klebsiella pneumoniae NCTC 9632 (肺炎克雷伯菌NCTC 9632); test: Antibacterial action (MIC, FICI) against Klebsiella pneumoniae NCTC 9632 (Table 9)
[8] = test system: Bacteroides fragilis ATCC25285 (脆弱拟杆菌ATCC25285); test: Antibacterial action (MIC, FICI) against Bacteroides fragilis ATCC25285 (Table 26)
[9] = test system: Providencia stuartii 57 (斯氏普罗威登斯菌57); test: Antibacterial action (MIC, FICI) against Providencia stuartii 57 (Table 12)
[10] = test system: Clostridium perfringens ATCC13124 (产气荚膜梭状芽孢杆菌ATCC13124)
[11] = test system: Propionibacterium acnes ATCC11828 (痤疮丙酸杆菌ATCC11828); test: Antibacterial action (MIC, FICI) against Propionibacterium acnes ATCC11828 (Table 21)

SMILES | MIC_A [1] | MIC_A [3] | MIC_A [4] | MIC_A [6] | MIC_A [7] | MIC_A [9] | MIC_A [10] | MIC_A [11] | further results
CCC(CC)O[C@@H]1C=C(C(=O)O)C[C@H](NC(C)=O)[C@H]1NC(CC(=O)O)C(=O)O (mixture of isomers) [化合物2P, ((1R,2R,6S)-6-乙酰氨基-4-羧基-2-(戊-3-基氧基)环己-3-烯-1-基)-DL-天门冬氨酸] | 45 ng/mL | 13 ng/mL | 10 ng/mL | – | – | – | – | – | MIC_A [2]: 22 ng/mL
CCOC(=O)C1=C[C@H](OC(CC)CC)[C@H](NC(C)=O)[C@@H](N)C1 [化合物6S, 乙基(3S,4R,5S)-4-乙酰氨基-5-氨基-3-(戊-3-基氧基)环己-1-烯-1-羧酸酯] | – | 473 ng/mL | 521 ng/mL | 445 ng/mL | – | – | – | – | MIC_A [5]: 556 ng/mL
CCOC(=O)C1=C[C@H](OC(CC)CC)[C@H](NC(C)=O)[C@@H](NC(CC(=O)O)C(=O)O)C1 (mixture of isomers) [化合物6P, ((1S,5S,6R)-6-乙酰氨基-3-(乙氧基羰基)-5-(戊-3-基氧基)环己-3-烯-1-基)-DL-天门冬氨酸] | – | 17 ng/mL | 28 ng/mL | 7 ng/mL | – | – | – | – | MIC_A [5]: 26 ng/mL
CCC(CC)O[C@@H]1C=C(C(=O)OC)C[C@H](N)[C@H]1NC(C)=O [化合物3S, 甲基(3R,4R,5S)-4-乙酰氨基-5-氨基-3-(戊-3-基氧基)环己-1-烯-1-羧酸酯] | – | – | – | 456 ng/mL | 424 ng/mL | – | – | – | MIC_A [8]: 362 ng/mL
CCOC(=O)C1=C[C@@H](O)[C@H](NC(C)=O)[C@@H](NC(CC(=O)O)C(=O)O)C1 (mixture of isomers) [化合物13P, ((1S,5R,6R)-6-乙酰氨基-3-(乙氧基羰基)-5-羟基环己-3-烯-1-基)-DL-天门冬氨酸] | – | – | 22 ng/mL | – | 55 ng/mL | 54 ng/mL | – | – | MIC_A [5]: 27 ng/mL
CCOC(=O)C1=C[C@@H](OC(CC)CC)[C@H](NC(C)=O)[C@@H](NC(CC(=O)O)C(=O)O)C1 (mixture of isomers) [化合物4P, ((1S,5R,6R)-6-乙酰氨基-3-(乙氧基羰基)-5-(戊-3-基氧基)环己-3-烯-1-基)-DL-天门冬氨酸] | 17 ng/mL | – | – | – | – | 34 ng/mL | 36 ng/mL | – | –
CCOC(=O)C1=C[C@@H](OC(CC)CC)[C@H](NC(C)=O)[C@@H](N)C1 [化合物4S, 乙基(3R,4R,5S)-4-乙酰氨基-5-氨基-3-(戊-3-基氧基)环己-1-烯-1-羧酸酯] | 456 ng/mL | – | – | – | – | 581 ng/mL | 762 ng/mL | – | –
CCOC(=O)C1=C[C@H](OC(CC)CC)[C@@H](NC(C)=O)[C@H](N)C1 [化合物7S, 乙基(3S,4S,5R)-4-乙酰氨基-5-氨基-3-(戊-3-基氧基)环己-1-烯-1-羧酸酯] | 484 ng/mL | – | – | – | 376 ng/mL | – | – | 461 ng/mL | MIC_A [2]: 1145 ng/mL
CCOC(=O)C1=C[C@@H](OC(C)CC)[C@H](NC(C)=O)[C@@H](NC(CC(=O)O)C(=O)O)C1 (mixture of isomers) [化合物19P, ((1S,5R,6R)-6-乙酰氨基-5-(sec-丁氧基)-3-(乙氧基羰基)环己-3-烯-1-基)-DL-天门冬氨酸] | – | – | 11 ng/mL | 13 ng/mL | – | 17 ng/mL | – | – | –
CCOC(=O)C1=C[C@H](OC(CC)CC)[C@@H](NC(C)=O)[C@H](NC(CC(=O)O)C(=O)O)C1 (mixture of isomers) [化合物7P, ((1R,5S,6S)-6-乙酰氨基-3-(乙氧基羰基)-5-(戊-3-基氧基)环己-3-烯-1-基)-DL-天门冬氨酸] | 27 ng/mL | – | – | – | 25 ng/mL | – | – | 10 ng/mL | MIC_A [2]: 60 ng/mL
CCC(CC)O[C@H]1C=C(C(=O)O)C[C@@H](NC(CC(=O)O)C(=O)O)[C@@H]1N (mixture of isomers) [化合物16P, ((1R,5S,6S)-6-氨基-3-羧基-5-(戊-3-基氧基)环己-3-烯-1-基)-DL-天门冬氨酸] | – | – | – | – | 15 ng/mL | – | – | – | –
CCOC(=O)C1=C[C@@H](OC(C)CC)[C@H](NC(C)=O)[C@@H](N)C1 (stereo partly drawn) [化合物19S, 乙基(3R,4R,5S)-4-乙酰氨基-5-氨基-3-(sec-丁氧基)环己-1-烯-1-羧酸酯] | – | – | 310 ng/mL | 1016 ng/mL | – | 823 ng/mL | – | – | –
CCC(CC)O[C@@H]1C=C(C(=O)OC)C[C@H](NC(CC(=O)O)C(=O)O)[C@H]1NC(C)=O (mixture of isomers) [化合物3P, ((1S,5R,6R)-6-乙酰氨基-3-(甲氧基羰基)-5-(戊-3-基氧基)环己-3-烯-1-基)-DL-天门冬氨酸] | – | – | – | 11 ng/mL | 22 ng/mL | – | – | – | MIC_A [8]: 11 ng/mL
CCOC(=O)C1=C[C@@H](OC(CC)CC)[C@H](NC(C)=O)[C@@H](NC(CC(=O)O)C(=O)O)C1 (mixture of isomers) [化合物1P, ((1S,5R,6R)-6-乙酰氨基-3-(乙氧基羰基)-5-(戊-3-基氧基)环己-3-烯-1-基)-DL-天门冬氨酸] | – | – | – | – | – | 13 ng/mL | 12 ng/mL | 18 ng/mL | MIC_A [5]: 4 ng/mL
CCOC(=O)C1=C[C@@H](OC(CC)CC)[C@H](NC(C)=O)[C@H](NC(CC(=O)O)C(=O)O)C1 (mixture of isomers) [化合物9P, ((1R,5R,6R)-6-乙酰氨基-3-(乙氧基羰基)-5-(戊-3-基氧基)环己-3-烯-1-基)-DL-天门冬氨酸] | – | – | 9 ng/mL | 49 ng/mL | – | 29 ng/mL | – | – | MIC_A [5]: 18 ng/mL; MIC_A [8]: 16 ng/mL
CCOC(=O)C1=C[C@@H](OC(CC)CC)[C@H](NC(C)=O)[C@@H](N)C1 [化合物1S, 乙基(3R,4R,5S)-4-乙酰氨基-5-氨基-3-(戊-3-基氧基)环己-1-烯-1-羧酸酯] | – | – | – | – | – | 1178 ng/mL | 504 ng/mL | 633 ng/mL | MIC_A [5]: 300 ng/mL

SMILES | MIC_A [1] | MIC_A [3] | MIC_A [4] | MIC_A [6] | MIC_A [7] | MIC_A [9] | MIC_A [10] | MIC_A [11] | further results
CCC(CC)O[C@@H]1C=C(C(=O)O)C[C@H](N)[C@H]1N [化合物11S, (3R,4R,5S)-4,5-二氨基-3-(戊-3-基氧基)环己-1-烯-1-羧酸] | 659 ng/mL | 774 ng/mL | – | – | 650 ng/mL | 1106 ng/mL | 482 ng/mL | – | –
CCOC(=O)C1=C[C@@H](O)[C@H](N)[C@@H](N)C1 [化合物14S, 乙基(3R,4R,5S)-4,5-二氨基-3-羟基环己-1-烯-1-羧酸酯] | – | – | – | 1102 ng/mL | – | – | – | 701 ng/mL | –
CCOC(=O)C1=C[C@@H](OC(CC)CC)[C@@H](NC(C)=O)[C@@H](NC(CC(=O)O)C(=O)O)C1 (mixture of isomers) [化合物8P, ((1S,5R,6S)-6-乙酰氨基-3-(乙氧基羰基)-5-(戊-3-基氧基)环己-3-烯-1-基)-DL-天门冬氨酸] | – | 41 ng/mL | – | – | – | – | 28 ng/mL | – | –
CCOC(=O)C1=C[C@@H](OC(C)C)[C@H](NC(C)=O)[C@@H](NC(CC(=O)O)C(=O)O)C1 (mixture of isomers) [化合物20P, ((1S,5R,6R)-6-乙酰氨基-3-(乙氧基羰基)-5-异丙氧基环己-3-烯-1-基)-DL-天门冬氨酸] | 19 ng/mL | 36 ng/mL | – | – | – | – | – | 18 ng/mL | –
CCC(CC)O[C@@H]1C=C(C(=O)O)C[C@H](NC(CC(=O)O)C(=O)O)[C@H]1N (mixture of isomers) [化合物11P, ((1S,5R,6R)-6-氨基-3-羧基-5-(戊-3-基氧基)环己-3-烯-1-基)-DL-天门冬氨酸] | 7 ng/mL | 50 ng/mL | – | – | 22 ng/mL | 17 ng/mL | 22 ng/mL | – | –
CCOC(=O)C1=C[C@@H](O)[C@H](N)[C@@H](NC(CC(=O)O)C(=O)O)C1 (mixture of isomers) [化合物14P, ((1S,5R,6R)-6-氨基-3-(乙氧基羰基)-5-羟基环己-3-烯-1-基)-DL-天门冬氨酸] | – | – | – | 46 ng/mL | – | – | – | 18 ng/mL | –
CCC(CC)O[C@@H]1C=C(C(=O)O)C[C@H](NC(C)=O)[C@H]1N [化合物2S, (3R,4R,5S)-5-乙酰氨基-4-氨基-3-(戊-3-基氧基)环己-1-烯-1-羧酸] | 720 ng/mL | 879 ng/mL | 493 ng/mL | – | – | – | – | – | MIC_A [2]: 345 ng/mL
CCOC(=O)C1=C[C@H](OC(CC)CC)[C@@H](N)[C@H](N)C1 [化合物17S, 乙基(3S,4S,5R)-4,5-二氨基-3-(戊-3-基氧基)环己-1-烯-1-羧酸酯] | 683 ng/mL | 447 ng/mL | – | – | – | – | 684 ng/mL | 969 ng/mL | MIC_A [2]: 929 ng/mL
CCOC(=O)C1=C[C@@H](OC(CC)CC)[C@H](N)[C@@H](N)C1 [化合物12S, 乙基(3R,4R,5S)-4,5-二氨基-3-(戊-3-基氧基)环己-1-烯-1-羧酸酯] | – | – | 406 ng/mL | 691 ng/mL | – | – | – | – | MIC_A [5]: 1027 ng/mL
CCOC(=O)C1=C[C@@H](O)[C@H](NC(C)=O)[C@@H](N)C1 [化合物13S, 乙基(3R,4R,5S)-4-乙酰氨基-5-氨基-3-羟基环己-1-烯-1-羧酸酯] | – | – | 655 ng/mL | – | 1081 ng/mL | 1021 ng/mL | – | – | MIC_A [5]: 914 ng/mL
CCOC(=O)C1=C[C@H](OC(CC)CC)[C@@H](N)[C@H](NC(CC(=O)O)C(=O)O)C1 (mixture of isomers) [化合物17P, ((1R,5S,6S)-6-氨基-3-(乙氧基羰基)-5-(戊-3-基氧基)环己-3-烯-1-基)-DL-天门冬氨酸] | 22 ng/mL | 16 ng/mL | – | – | – | – | 21 ng/mL | 27 ng/mL | MIC_A [2]: 30 ng/mL
CCC(CC)O[C@H]1C=C(C(=O)O)C[C@@H](N)[C@@H]1N [化合物16S, (3S,4S,5R)-4,5-二氨基-3-(戊-3-基氧基)环己-1-烯-1-羧酸] | – | – | – | – | 1179 ng/mL | – | – | – | –
CCOC(=O)C1=C[C@@H](OC(CC)CC)[C@@H](NC(C)=O)[C@@H](N)C1 [化合物8S, 乙基(3R,4S,5S)-4-乙酰氨基-5-氨基-3-(戊-3-基氧基)环己-1-烯-1-羧酸酯] | – | 800 ng/mL | – | – | – | – | 483 ng/mL | – | –
CCOC(=O)C1=C[C@@H](OC(CC)CC)[C@H](N)[C@@H](NC(CC(=O)O)C(=O)O)C1 (mixture of isomers) [化合物12P, ((1S,5R,6R)-6-氨基-3-(乙氧基羰基)-5-(戊-3-基氧基)环己-3-烯-1-基)-DL-天门冬氨酸] | – | – | 25 ng/mL | 47 ng/mL | – | – | – | – | MIC_A [5]: 30 ng/mL
CCOC(=O)C1=C[C@@H](OC(C)C)[C@H](NC(C)=O)[C@@H](N)C1 [化合物20S, 乙基(3R,4R,5S)-4-乙酰氨基-5-氨基-3-异丙氧基环己-1-烯-1-羧酸酯] | 704 ng/mL | 1079 ng/mL | – | – | – | – | – | 771 ng/mL | –
